In patent US20120009280A1, “METHOD OF REDUCING THE RATE OF DEGRADATION OF A BIOLOGICAL MATERIAL” (Bio-Energy Ingredients Limited, priority 2009, published 2012):

How the values were obtained:
[1] = system: mould; assay: Mould count of spent brewer's / wet distiller's grains stored at ambient temperature; assay type: cell-based
Outline: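 Wet grain samples were mixed with a powdered treatment agent in a single initial mix, with no later treatment or agitation. Batches and untreated controls were kept under insect-proof screens at ambient temperature. Every seven days, a whole sample from each treatment went to a SANAS-approved microbiological laboratory. Mould counts were determined there following a procedure similar to Rosentrater et al. (2008).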

[2] = system: yeast; assay: Yeast count of spent brewer's / wet distiller's grains stored at ambient temperature; assay type: cell-based
[3] = pH of suspensions of grain samples in distilled water or PBS; settings: 1% (w/w) in distilled water
Experimental: The untreated sample (A) was compared visually against the corresponding quicklime-treated sample (B).
On Day 7, 10 g amounts of each sample were suspended in either 90 ml PBS or 90 ml sterile distilled water and shaken for 10 minutes. The pH of each suspension was then measured and compared.
On Day 9, 10 g of each sample was suspended in 90 ml PBS and shaken for 10 minutes. The pH was measured.

[4] = 10% Ca-DGO (w/w) granules, week 1
[5] = 10% Ca-DGO (w/w) granules, week 2
[6] = 10% Ca-DGO (w/w) granules, week 3
[7] = 10% Ca-DGO (w/w) granules, week 4
[8] = 10% Ca-DGO (w/w) granules, week 5
[9] = 10% Ca-DGO (w/w) powder, week 1
[10] = 10% Ca-DGO (w/w) powder, week 2
[11] = 10% Ca-DGO (w/w) powder, week 3
[12] = 10% Ca-DGO (w/w) powder, week 4
[13] = 10% Ca-DGO (w/w) powder, week 5
[14] = 20% Ca-DGO (w/w) powder, week 1
[15] = 20% Ca-DGO (w/w) powder, week 2
[16] = 20% Ca-DGO (w/w) powder, week 3
[17] = 20% Ca-DGO (w/w) powder, week 4
[18] = 20% Ca-DGO (w/w) powder, week 5
[19] = 40% Ca-DGO (w/w) powder, week 1
[20] = 40% Ca-DGO (w/w) powder, week 2
[21] = 40% Ca-DGO (w/w) powder, week 3
[22] = 40% Ca-DGO (w/w) powder, week 4
[23] = 40% Ca-DGO (w/w) powder, week 5

Q: For [Ca+2].[O-]CC(O)CO.[O-]CC(O)CO [calcium diglyceroxide], which “Mould Count” value [1, 4] is on record?
A: 10 cfu/gram

Q: What about the “Mould Count” value [1, 5] of the same compound?
A: <10 cfu/gram

Q: And the “Mould Count” value [1, 6]?
A: <10 cfu/gram

Q: And the “Mould Count” value [1, 7]?
A: <10 cfu/gram

Q: What about the “Mould Count” value [1, 8] of the same compound?
A: <10 cfu/gram

Q: What about the “Mould Count” value [1, 9] of the same compound?
A: <10 cfu/gram

Q: What about the “Mould Count” value [1, 10] of the same compound?
A: <10 cfu/gram

Q: What about the “Mould Count” value [1, 11] of the same compound?
A: <10 cfu/gram

Q: And the “Mould Count” value [1, 12]?
A: 310 cfu/gram

Q: And the “Mould Count” value [1, 13]?
A: 1020 cfu/gram

Q: What about the “Mould Count” value [1, 14] of the same compound?
A: 10 cfu/gram

Q: And the “Mould Count” value [1, 15]?
A: 10 cfu/gram

Q: And the “Mould Count” value [1, 16]?
A: 10 cfu/gram

Q: What about the “Mould Count” value [1, 17] of the same compound?
A: 10 cfu/gram

Q: What about the “Mould Count” value [1, 18] of the same compound?
A: 10 cfu/gram

Q: And the “Mould Count” value [1, 19]?
A: 10 cfu/gram

Q: And the “Mould Count” value [1, 20]?
A: 10 cfu/gram

Q: And the “Mould Count” value [1, 21]?
A: 10 cfu/gram

Q: And the “Mould Count” value [1, 22]?
A: 10 cfu/gram

Q: What about the “Mould Count” value [1, 23] of the same compound?
A: 10 cfu/gram

Q: What about the “Yeast Count” value [2, 4] of the same compound?
A: 480 cfu/gram

Q: What about the “Yeast Count” value [2, 5] of the same compound?
A: <10 cfu/gram

Q: What about the “Yeast Count” value [2, 6] of the same compound?
A: <10 cfu/gram

Q: What about the “Yeast Count” value [2, 7] of the same compound?
A: <19 cfu/gram

Q: What about the “Yeast Count” value [2, 8] of the same compound?
A: <10 cfu/gram

Q: What about the “Yeast Count” value [2, 9] of the same compound?
A: <10 cfu/gram

Q: What about the “Yeast Count” value [2, 10] of the same compound?
A: <10 cfu/gram

Q: What about the “Yeast Count” value [2, 11] of the same compound?
A: <10 cfu/gram

Q: And the “Yeast Count” value [2, 12]?
A: <10 cfu/gram

Q: And the “Yeast Count” value [2, 13]?
A: <10 cfu/gram

Q: And the “Yeast Count” value [2, 14]?
A: 10 cfu/gram

Q: What about the “Yeast Count” value [2, 15] of the same compound?
A: 10 cfu/gram

Q: What about the “Yeast Count” value [2, 16] of the same compound?
A: 10 cfu/gram

Q: And the “Yeast Count” value [2, 17]?
A: 10 cfu/gram

Q: What about the “Yeast Count” value [2, 18] of the same compound?
A: 10 cfu/gram

Q: What about the “Yeast Count” value [2, 19] of the same compound?
A: 10 cfu/gram

Q: What about the “Yeast Count” value [2, 20] of the same compound?
A: 10 cfu/gram

Q: And the “Yeast Count” value [2, 21]?
A: 20 cfu/gram

Q: And the “Yeast Count” value [2, 22]?
A: 10 cfu/gram

Q: And the “Yeast Count” value [2, 23]?
A: 10 cfu/gram

Q: And the pH [3, 4]?
A: 7.88

Q: What about the pH [3, 5] of the same compound?
A: 7.71

Q: And the pH [3, 6]?
A: 7.44

Q: And the pH [3, 7]?
A: 7.14

Q: And the pH [3, 8]?
A: 8.37

Q: And the pH [3, 9]?
A: 9.43

Q: And the pH [3, 10]?
A: 7.32

Q: And the pH [3, 11]?
A: 7.31

Q: What about the pH [3, 12] of the same compound?
A: 8.01

Q: And the pH [3, 13]?
A: 7.23

Q: And the pH [3, 14]?
A: 11.47

Q: What about the pH [3, 15] of the same compound?
A: 11.16

Q: And the pH [3, 16]?
A: 12.00

Q: And the pH [3, 17]?
A: 11.23

Q: What about the pH [3, 18] of the same compound?
A: 10.83

Q: And the pH [3, 19]?
A: 11.66

Q: What about the pH [3, 20] of the same compound?
A: 11.50

Q: What about the pH [3, 21] of the same compound?
A: 12.30

Q: And the pH [3, 22]?
A: 11.52

Q: What about the pH [3, 23] of the same compound?
A: 11.13
